Measurements: US20200102264A1, “MARMELIN ANALOGS AND METHODS OF USE IN CANCER TREATMENT” (THE UNIVERSITY OF KANSAS, priority 2014, published 2020)

Columns and labels:
Type in all cases: cell-based
[1] = test system: PanC-1 pancreatic cancer cells; assay: hexoseaminidase cell proliferation assay, PanC-1
Method: (§1) Using hexoseaminidase assay, we determined the effect of the compounds on cell proliferation. […] The IC50 value at 48 hours is below 10 μM in all the cancer cell lines.
(§2) Using hexoseaminidase assay, we determined the effect of the compounds on cell proliferation. […] The MRL16 IC50 value at 48 hours is below 0.3 μM in Colon cancer cell lines. […] Overall, the analogs can be used as chemotherapeutic agents against colon and pancreatic cancer.

SW480 cells = assay: cell cycle analysis, SW480; conditions: SW480, Table 3
Method: The analogs were tested to determine the ability induce death of colon cancer cells.

HCT116 cells = assay: cell cycle analysis, HCT116; conditions: HCT116, Table 3
[2] = test system: HCT116 colon cancer cells; assay: hexoseaminidase cell proliferation assay, HCT116
Source text: (§3) Using hexoseaminidase assay, we determined the effect of the compounds on cell proliferation. […]
(§4) Using hexoseaminidase assay, we determined the effect of the compounds on cell proliferation. […] […] […] Overall, the analogs can be used as chemotherapeutic agents against colon and pancreatic cancer.

SW480 colon cancer cells = assay: hexoseaminidase cell proliferation assay, SW480
Source text: as §3, §4

[3] = test system: MiaPaCa-2 pancreatic cancer cells; assay: hexoseaminidase cell proliferation assay, MiaPaCa-2
Method: as §1, §2

[4] = test system: colon, pancreatic and bladder cancer cells; assay: hexoseaminidase cell proliferation assay, summaries over cell lines; conditions: dose and time dependent
Method: Water solubility studies were performed with the CD/analog complexes. […] The observed IC50 value of THBCD at 48 h is below 10 μM in all the colon, pancreatic and bladder cancer cells.
as §1, §2

[5] = Homo sapiens, HCT-116, HCT116, 24 h
[6] = Homo sapiens, HCT-116, HCT116, 48 h
[7] = Homo sapiens, HCT-116, HCT116, 72 h
[8] = Homo sapiens, MIA PaCa-2, MiaPaCa-2, 24 h
[9] = Homo sapiens, MIA PaCa-2, MiaPaCa-2, 48 h
[10] = Homo sapiens, MIA PaCa-2, MiaPaCa-2, 72 h

| SMILES | IC50 ([1]; Homo sapiens, PANC-1, 24 h) [µM] | IC50 ([1]; Homo sapiens, PANC-1, 48 h) [µM] | IC50 ([1]; Homo sapiens, PANC-1, 72 h) [µM] | IC50 [2, 5] [µM] | IC50 [2, 6] [µM] | IC50 [2, 7] [µM] | IC50 (SW480 colon cancer cells; Homo sapiens, SW480, 24 h) [µM] | IC50 (SW480 colon cancer cells; Homo sapiens, SW480, 48 h) [µM] | IC50 (SW480 colon cancer cells; Homo sapiens, SW480, 72 h) [µM] | IC50 [3, 8] [µM] | IC50 [3, 9] [µM] | IC50 [3, 10] [µM] | IC50 ([1]; PanC-1, 24 h) [µM] | IC50 ([1]; PanC-1, 72 h) [µM] | IC50 ([2]; HCT116, 48 h) [µM] | IC50 ([2]; HCT116, 72 h) [µM] | IC50 (SW480 colon cancer cells; SW480, 48 h) [µM] | IC50 (SW480 colon cancer cells; SW480, 72 h) [µM] | IC50 ([3]; MiaPaCa-2, 24 h) [µM] | IC50 ([3]; MiaPaCa-2, 48 h) [µM] | also measured |
| --- | --- | --- | --- | --- | --- | --- | --- | --- | --- | --- | --- | --- | --- | --- | --- | --- | --- | --- | --- | --- | --- |
| OC[C@H]1O[C@@H]2O[C@H]3[C@H](O)[C@@H](O)[C@@H](O[C@H]4[C@H](O)[C@@H](O)[C@@H](O[C@H]5[C@H](O)[C@@H](O)[C@@H](O[C@H]6[C@H](O)[C@@H](O)[C@@H](O[C@H]7[C@H](O)[C@@H](O)[C@@H](O[C@H]8[C@H](O)[C@@H](O)[C@@H](O[C@H]1[C@H](O)[C@H]2O)O[C@@H]8CO)O[C@@H]7CO)O[C@@H]6CO)O[C@@H]5CO)O[C@@H]4CO)O[C@@H]3CO [CD, β-cyclodextrin] | > 50 | > 50 | > 50 | > 50 | > 50 | > 50 | > 50 | > 50 | > 50 | > 50 | > 50 | > 50 |  |  |  |  |  |  |  |  | G0/G1 (%) (SW480 cells): 61.1%; G2M (%) (SW480 cells): 19.8%; S (%) (SW480 cells): 14.9%; SubG0 Dead Cells (%) (SW480 cells): 3.6%; G0/G1 (%) (HCT116 cells): 43.9%; G2M (%) (HCT116 cells): 10.9%; S (%) (HCT116 cells): 12.3%; SubG0 Dead Cells (%) (HCT116 cells): 31.0% |
| O=C(N/N=C/c1coc2ccccc2c1=O)c1cc2ccccc2cc1O [CMR] |  |  |  |  |  |  |  |  |  |  |  |  | > 50 | > 50 | > 50 | > 50 | > 50 | > 50 | > 50 | > 50 | IC50 ([1]; PanC-1, 48 h): > 50 µM; IC50 ([2]; HCT116, 24 h): > 50 µM; IC50 (SW480 colon cancer cells; SW480, 24 h): > 50 µM; IC50 ([3]; MiaPaCa-2, 72 h): > 50 µM |
| C/C(=N\NC(=O)c1cc2ccccc2cc1O)c1cc2ccccc2oc1=O [COU] | > 50 | > 50 | > 50 | > 50 | > 50 | > 50 | > 50 | > 50 | > 50 | > 50 | > 50 | > 50 |  |  |  |  |  |  |  |  |  |
| CC(=O)c1ccc2ccccc2c1O [MRL15] | > 10 | > 10 | > 10 | > 10 | > 10 | > 10 | > 10 | > 10 | > 10 | > 10 | > 10 | > 10 |  |  |  |  |  |  |  |  |  |
| C/C(=N\NC(=O)c1ccccc1O)c1ccc2ccccc2c1O [MRL18] | > 10 | 4 | 2 | > 10 | 3 | 1 | > 10 | 5 | 3 | > 10 | > 10 | 10 |  |  |  |  |  |  |  |  | inhibition of cell proliferation (in words) [4]: potent inhibitor |
| C/C(=N\NC(=O)c1ccccc1)c1ccc2ccccc2c1O [MRL19] | > 10 | 10 | 4 | > 10 | 5 | 2.3 | > 10 | > 10 | 5 | > 10 | > 10 | > 10 |  |  |  |  |  |  |  |  | inhibition of cell proliferation (in words) [4]: potent inhibitor |
| C/C(=N\NC(=O)Cc1cc2ccccc2[nH]1)c1ccc2ccccc2c1O [MRL22] | > 10 | > 10 | > 10 | > 10 | > 10 | > 10 | > 10 | > 10 | > 10 | > 10 | > 10 | > 10 |  |  |  |  |  |  |  |  |  |
| NNC(=O)c1cc2ccccc2cc1O [MRL BDM] |  |  |  |  |  |  |  |  |  |  |  |  | > 50 | > 50 | > 50 | > 50 | > 50 | > 50 | > 50 | > 50 | IC50 ([1]; PanC-1, 48 h): > 50 µM; IC50 ([2]; HCT116, 24 h): > 50 µM; IC50 (SW480 colon cancer cells; SW480, 24 h): > 50 µM; IC50 ([3]; MiaPaCa-2, 72 h): > 50 µM |
| O=C(N/N=C/c1ccc(F)c(F)c1)c1cc2ccccc2cc1O [MRL DFB] |  |  |  |  |  |  |  |  |  |  |  |  | > 50 | 20 | 25 | 22 | 20 | 18 | > 50 | 25 | IC50 ([2]; HCT116, 24 h): > 50 µM; IC50 (SW480 colon cancer cells; SW480, 24 h): > 50 µM; IC50 ([3]; MiaPaCa-2, 72 h): 17 µM |
| O=C(N/N=C/c1ccc(F)cc1)c1cc2ccccc2cc1O [MRL MFB] |  |  |  |  |  |  |  |  |  |  |  |  | > 50 | > 50 | > 50 | > 50 | > 50 | > 50 | > 50 | > 50 | IC50 ([1]; PanC-1, 48 h): > 50 µM; IC50 ([2]; HCT116, 24 h): > 50 µM; IC50 (SW480 colon cancer cells; SW480, 24 h): > 50 µM; IC50 ([3]; MiaPaCa-2, 72 h): > 50 µM |
| O=C(N/N=C/c1ccc(O)cc1)c1cc2ccccc2cc1O [MRL MHB] |  |  |  |  |  |  |  |  |  |  |  |  | > 50 | > 50 | > 50 | > 50 | > 50 | > 50 | > 50 | > 50 | IC50 ([1]; PanC-1, 48 h): > 50 µM; IC50 ([2]; HCT116, 24 h): > 50 µM; IC50 (SW480 colon cancer cells; SW480, 24 h): > 50 µM; IC50 ([3]; MiaPaCa-2, 72 h): > 50 µM |
| O=C(N/N=C/c1cc(F)cc(F)c1)c1cc2ccccc2cc1O [MRL RFB] |  |  |  |  |  |  |  |  |  |  |  |  | > 50 | 40 | 35 | 35 | 40 | 35 | > 50 | 40 | IC50 ([1]; PanC-1, 48 h): 40 µM; IC50 ([3]; MiaPaCa-2, 72 h): 35 µM |
| O=C(N/N=C/c1ccc(F)c(F)c1F)c1cc2ccccc2cc1O [MRL TFB] |  |  |  |  |  |  |  |  |  |  |  |  | > 50 | > 50 | > 50 | > 50 | > 50 | > 50 | > 50 | > 50 | IC50 ([1]; PanC-1, 48 h): > 50 µM; IC50 ([2]; HCT116, 24 h): > 50 µM; IC50 (SW480 colon cancer cells; SW480, 24 h): > 50 µM; IC50 ([3]; MiaPaCa-2, 72 h): > 50 µM |
| O=C(N/N=C/c1ccc2ccccc2n1)c1cc2ccccc2cc1O [QNL] | > 50 | > 50 | > 50 | > 50 | > 50 | 20 | > 50 | > 50 | > 50 | > 50 | > 50 | 25 |  |  |  |  |  |  |  |  |  |
